Consider 16 compounds from patent US6395758B1, “Small molecule carbamates or ureas for vision and memory disorders” (GPI Nil Holdings, Inc., priority 1998, dated 2002).

Marks after values point to notes of the source that are not given here.

Data set [1] has as its system retinal ganglion cell axons. Put plainly: Protection of retinal ganglion cell axons 14 days after optic nerve transection (Table E). The data set is classed as in vivo. The note with it: ± SEM. The source says: Efficacy of representative compounds from different immunophilin ligand series in protecting retinal ganglion cell axons from degeneration following optic nerve transection is set forth in Table E.

Data set [2] can be described thus: Clearance (Table E comments). The data set is classed as in vitro ADME. The note with it: no method given.
The target in a further data set is FKBP12 (Homo sapiens, UniProt P62942). Put plainly: Ki test: inhibition of peptidyl-prolyl isomerase (rotamase) activity, chymotrypsin-coupled assay. The data set is classed as biochemical. The note with it: apparent Ki, Table II. From the text:
The inhibition of the prolyl peptidyl cis-trans isomerase activity of FKBP may be measured as an indicator of this affinity. Inhibition of the peptidyl-prolyl isomerase (rotamase) activity of the compounds used in the inventive methods and pharmaceutical compositions can be evaluated by known methods described in the literature (Harding et al., Nature, 1989, 341:758-760; Holt et al. J. Am. Chem. Soc., 115:9923-9938). […] The cis-trans isomerization of an alanine-proline bond in a model substrate, N-succinyl-[…]-nitroanilide, is monitored spectrophotometrically in a chymotrypsin-coupled assay, which releases para-nitroanilide from the trans form of the substrate. The inhibition of this reaction caused by the addition of different concentrations of inhibitor is determined, and the data is analyzed as a change in first-order rate constant as a function of inhibitor concentration to yield the apparent Ki values. […] The absorbance at 390 nm versus time is monitored for 90 seconds using a spectrophotometer and the rate constants are determined from the absorbance versus time data files.

The test system of data set [3] is retinal ganglion cells, optic nerve axons and myelin. Put plainly: Retinal ischemia (intraocular pressure raised above arterial pressure), evaluation 28 days later. Type of data set: in vivo, rats. The source says: Retinal ganglion cells were retrogradely labeled in adult rats by bilateral injection of fluorogold in their lateral geniculate nuclei. Labeled ganglion cells in the normal rat retina appear as white profiles against the dark background (FIG. 1A). Complete retinal ischemia was produced by infusing normal saline solution into the retinal vitreous cavity of each eye until the intraocular pressure exceeded arterial blood pressure. 28 days after the ischemic episode extensive degeneration of retinal ganglion cell was evidenced by massive reduction in the density of fluorogold labeled cells (FIG. 1B).
Optic nerves from vehicle treated cases examined 28 days after a 1 hour retinal ischemic episode are characterized by a decreased density of optic nerve axons and the appearance of numerous degenerating myelin figures (bright white filled circles).

Data set [4] has as its system retinal ganglion cells and their axons. Put plainly: Example 18: optic nerve transection, 28 day GPI-1046, sacrifice at 90 days. Conditions: 10 mg/kg/day s.c. for 28 days; 90 days after transection. The data set is classed as in vivo, Sprague Dawley rats. The source says:
Transection of the mammalian optic nerve results in a brief period of abortive regeneration, but the majority of axotomized neurons die and the axons from many persisting ganglion cells die back beyond the optic nerve head.

Data set [5] relates to retinal ganglion cells and optic nerve axons. The data set is described as follows: Optic nerve transection, 14 or 28 day treatment, evaluation 90 days after transection. Type of data set: in vivo, Sprague Dawley rats. Conditions: 90 days after ONT; for increased ON axon density: adjusted for optic nerve diameter; for ON axon Count: axonal density multiplied by ON area; for Proximal optic nerve myelin basic protein Density, % recovery: ± SEM. The source says: All eyes and optic nerves stumps were removed.

The subject of data set [6] is retina (neovascularization, INL, GCL, ONL neurons). Put plainly: Streptozotocin induced diabetes, retinal neovascularization and neuron loss. The data set is classed as in vivo.
Data set [7] relates to streptozotocin-induced diabetic rat. The data set is described as follows: Streptozotocin-induced diabetic sensory neuropathy, hot plate and tail flick. Type of data set: in vivo, Male Wistar rats. The note with it: treated for 6 weeks at 10 mg/kg s.c., started six weeks after streptozotocin. Here is the method: The procedure involved using Male Wistar rats which were given a single injection of streptozotocin (65 mg/kg i.v.). Blood glucose levels were determined weekly for the first three weeks and on the last week of the experiment. Animals were evaluated weekly for signs of sensory neuropathy using the conventional hot plate and tail flick apparatus test procedures.

In a further data set the test system is aged impaired mice. Put plainly: Morris watermaze, spatial learning and memory in aged rodents. Type of data set: in vivo, C57BL/6N-Nia mice. Conditions: 10 mg/kg daily. The source says: The Morris watermaze is widely used for assessing spatial memory formation and retention in experimental animals. The test depends on the animal's ability to utilize spatial visual information in order to locate a submerged escape platform in a water tank. It is important that the tank itself be as devoid of specific visual features as possible—thus, it is always circular in shape, the sides are kept smooth and in uniform dull colors, and the water is rendered opaque with nontoxic watercolor pigment or powdered milk. This is to ensure that the animal navigates only by the use of more distant visual cues, or by the use of intra-maze cues specifically provided by the experimenter. The animals' path, speed, and swim time are tracked with a ceiling camera for later computerized analysis. Over the course of several successive trials, spatial learning can therefore be defined as a drop of distance swum, or time elapsed, from placement in the tank until escape onto the invisible platform. The procedure involved using three-month old (young) and 18-19 month old male C57BL/6N-Nia (aged) mice which habituated to the well known and conventional Morris watermaze during a 4 trials/day, 3-4 day visible platform training phase. […] Swim Distances (cm) were analyzed in a 7×5 ANOVA including Groups and Blocks (1-5) as factors in the analysis, treating Blocks as a repeated measure.

Setting [8] is: 28 day treatment beginning 8 weeks after onset of streptozotocin diabetes.

Chain of FKBP12 (P62942 whole entry, species assumed): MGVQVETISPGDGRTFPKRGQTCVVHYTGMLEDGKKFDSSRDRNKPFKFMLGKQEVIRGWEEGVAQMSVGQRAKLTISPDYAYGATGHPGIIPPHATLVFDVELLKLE

As to `O=C(SCCCc1ccccc1)[C@@H]1CCCN1C(=O)NC12CC3CC(CC(C3)C1)C2` [B], the “RT97 + RGC axon density 14 days after ON transection (% ON axons rescued)” value in data set [1] is reported as 100.0% ± 5.2% SEM.
The compound `O=C(SCCCc1ccccc1)[C@@H]1CCCN1S(=O)(=O)Cc1ccccc1` [C] showed a Clearance in data set [2] of 31.1 µL/min. In data set [1], the “RT97 + RGC axon density 14 days after ON transection (% ON axons rescued)” value is given as 60.4% ± 3.1% SEM.
Take `CCC(C)CNC(=O)N1CCC[C@H]1C(=O)OCCCc1cccnc1` (stereo partly drawn) [Compound 1, 3-(3-pyridyl)-1-propyl (2S)-1-[(2-methylbutyl)carbamoyl]pyrrolidine-2-carboxylate]: the Ki at FKBP12 was found to be 70 nM.
As to `CCC(C)(C)NC(=O)N1CCC[C@H]1C(=O)OCCCc1cccnc1` [Compound 2, 3-(3-Pyridyl)-1-propyl (2S)-1-[(1′,1′-dimethylpropyl)carbamoyl]pyrrolidine-2-carboxylate], the Ki at FKBP12 was found to be 742 nM.
On the same count and under the same terms, the figure for `O=C(OCCCc1cccnc1)[C@@H]1CCCN1C(=O)NC1CCCCC1` [Compound 4, 3-(3-pyridyl)-1-propyl (2S)-1-[(cyclohexyl)carbamoyl]-pyrrolidine-2-carboxylate] is 1480 nM; for `O=C(OCCCc1cccnc1)[C@@H]1CCCN1C(=S)NC12CC3CC(CC(C3)C1)C2` [Compound 5, 3-(3-pyridyl)-1-propyl (2S)-1-[(1-adamantyl)thiocarbamoyl]-pyrrolidine-2-carboxylate] it is 116 nM.
`CCC(C)(C)C(=O)C(=O)N1CCCC[C@H]1C(=O)SCCC(c1ccccc1)c1ccccc1` [Compound K] showed a Clearance in data set [2] of 4.5 µL/min.
For the compound `CCC(C)(C)C(=O)C(=O)N1CCCCC1C(=O)OC(CCc1ccccc1)CCc1ccccc1` (stereo not drawn) [E], the Clearance in data set [2] worked out at 41.8 µL/min.
Consider `CCC(C)(C)C(=O)C(=O)N1CCC[C@H]1C(=O)SCCCc1cccnc1` [GPI 1046], for which the “protection of fluorogold labeled retinal ganglion cells” value in [3] (10 mg/kg s.c. 1 hour prior to ischemia and 10 mg/kg/day for next four days, 28 days after ischemia) is on record as “noticeable protection of a large proportion of the vulnerable ganglion cell population”. Also, the “density of degenerating myelin figures in optic nerve” value in data set [3] (28 days after 1 hour retinal ischemic episode) was “dramatically decreased the density of degenerating myelin figures”. In [4], the “axons in the proximal stump of the transected nerve (RT97)” value is “preserved the axons of virtually all protected neurons” and the “ganglion cell population spared” value amounted to 25%. In addition, in data set [5] (14 days GPI 1046), the “% RGCs Rescued” value worked out at 5.3%, the “% surviving RGCs with ON axons” value was 33.6%, the “ON head area (% sham)” value stood at 76% and the “Spared RGC population” value was 20,275. In data set [5] (14 days GPI 1046), the “increased ON axon density” value was determined as 1.5× and the “ON axon Count” value is reported as 6820. The “Distal optic nerve myelin basic protein loss” value in [5] (14 days GPI 1046, cross sectional area multiplied by myelin density) is recorded as 47% loss. The “Distal optic nerve shrinkage” value in [5] (14 days GPI 1046, cross sectional area vs sham) was 33% shrinkage. In addition, in [5] (14 days GPI 1046, mean ± SEM RT97 labeled axons in 200 μm × 200 μm region), the “ON Axon density” value turned out to be 569 ± 23. For the same compound, the “Proximal optic nerve myelin basic protein Density, % recovery” value in data set [5] (14 days GPI 1046, % areal coverage of cross section) is 1.6 ± 3.0 SEM % recovery. Besides, in data set [5] (28 days GPI 1046 10 mg/kg/day sc, mean density ± SEM of Fluoro-gold labeled RGC in 400 μm × 400 μm gridfields), the “RGC Counts” value was found to be 67.9 ± 5.8. In data set [5] (28 days GPI 1046), the “% surviving RGCs with ON axons” value came out at 81.4%, the “Distal optic nerve myelin preservation” value turned out to be 99% myelin, the “ON head area (% sham)” value is 95%* and the “Spared RGC population” value is on record as 28,096*. Further, in data set [5] (28 days GPI 1046), the “increased ON axon density” value was determined as 5.0×; the “ON axon Count” value was 22,861*; the “Proximal optic nerve myelin basic protein Density, % recovery” value is listed as 70 ± 6.3 SEM % recovery. Besides, in [5] (28 days GPI 1046, cross sectional area vs sham), the “Distal optic nerve, less shrinkage” value was 56% less shrinkage*. In data set [5] (first 14 days GPI 1046), the “density of myelin, distal stump” value is on record as “slightly increase the density of myelin” and the “shrinkage of the distal stump” value is recorded as “did not protect against shrinkage”. For the same compound, the “protection of optic nerve axons” value in [5] (first 14 days GPI 1046, proximal stump) is reported as 5.3%. In [5] (first 28 days GPI 1046), the “cross sectional shrinkage of the distal stump” value is listed as “prevented cross sectional shrinkage”; the “fascicular staining pattern for myelin basic protein, proximal stump” value was “dramatic preservation of the fascicular staining pattern”; the myelin levels, distal stump, % of normal levels was found to be 99%. In addition, in data set [2], the Clearance was determined as 63.8 µL/min. In data set [6] (setting [8]), the “neovascularization in the PR, ONL, OPL and INL” value is listed as “reduced neovascularization”; the “neuronal loss in the ONL” value is on record as “did not appear to protect against neuronal loss”. The “loss of neurons in the INL and GCL” value in data set [6] (28 day treatment beginning 8 weeks after onset, vs streptozotocin/vehicle controls) is listed as “appeared to decrease the loss of neurons”. Besides, in [7], the “latency, hot plate and tail flick” value was “improvement in latency”. Also, the “RT97 + RGC axon density 14 days after ON transection (% ON axons rescued)” value in data set [1] is 60.5% ± 3.9 SEM. The “spatial memory performance, retention testing (swim distance), aged impaired GPI-1046 vs aged impaired vehicle” value in the data set with aged impaired mice (retention testing after 3 weeks of dosing, F1.69=8.11, P=0.006) is “significantly enhanced spatial memory performance”. The “retention phase swim distance, young vs aged impaired GPI-1046” value with aged impaired mice (F1.69=3.09, P=0.08) is given as “no longer any statistically significant difference”.
`CCC(C)(C)C(=O)C(=O)N1CCCC[C@H]1C(=O)O` [G]: in data set [1], the “RT97 + RGC axon density 14 days after ON transection (% ON axons rescued)” value is recorded as 34.0% ± 4.8% SEM.
`CCC(C)(C)C(=O)C(=O)N1CCCC[C@H]1C(N)=O` [H]: the “RT97 + RGC axon density 14 days after ON transection (% ON axons rescued)” value in data set [1] is on record as 30.3% ± 8.0% SEM.
Take `O=C(OCCCc1cccnc1)[C@@H]1CCCN1C(=S)NC1CCCCC1` [I]: in [2], the Clearance turned out to be 8.0 µL/min. In data set [1], the “RT97 + RGC axon density 14 days after ON transection (% ON axons rescued)” value was 23.8% ± 5.3 SEM.
For `CCC(C)(C)C(=O)C(=O)N1CCC[C@H]1C(=O)CCCCc1cccnc1` [J], the Clearance in data set [2] was found to be 1.5 µL/min. For the same compound, the “RT97 + RGC axon density 14 days after ON transection (% ON axons rescued)” value in data set [1] was 15.8% ± 4.8% SEM.
For `CCC(C)(C)C(=O)C(=O)N1CCC[C@H]1C(=O)O` [L], in data set [2], the Clearance came out at 5.2 µL/min. For the same compound, in data set [1], the “RT97 + RGC axon density 14 days after ON transection (% ON axons rescued)” value is given as 7.8% ± 3.0% SEM.
The compound `CCC(C)(C)C(=O)C(=O)N1CCC[C@H]1C(=O)SCCC(c1ccccc1)c1ccccc1` [M] yielded a Clearance in data set [2] of 12.5 µL/min. In addition, the “RT97 + RGC axon density 14 days after ON transection (% ON axons rescued)” value in data set [1] is recorded as −6.3% ± 3.9% SEM.
With `CN(C)C(=O)N1CCC[C@H]1C(=O)SCCCc1ccccc1` [N], the Clearance in data set [2] is 21.9 µL/min.
